Experiments:
Format in all cases: cell-based
[1] = test system: MDA-N; assay: SRB growth assay, 6 days exposure, breast cancer
Method: (§1) Arsenic trioxide (1 mg/ml, 10 mg/ampoule, manufactured by Taylor Pharmaceuticals, Decatur, Ill.) was tested at five concentrations each at 10-fold dilutions, i.e., 10^−5, 10^−6, 10^−7, 10^−8 and 10^−9 μg/ml.
(§2) The in vitro tests were performed by incubating the test cells in the presence of the indicated concentration of arsenic trioxide under standard culture conditions for a designated period of time, which is followed by a sulforhodamine B (SRB) protein assay to estimate cell viability or growth. The cell lines are organized into subpanels according to the origin of the cell lines, e.g., leukemia, breast cancer, etc. A description of the cell lines and method of testing is described in Monk et al. (1997, Anticancer Drug Des. 12:533-41) and Weinstein et al., (1997, Science 275:343-9), which are incorporated herein in their entirety.
(§3) The measurement of an effect is expressed in Percentage Growth (PG). The measured effect of the compound on a cell line is calculated according to one or the other of the following two expressions: If (Mean ODtest−Mean ODzero)≧0. then PG=100×(Mean ODtest−Mean ODzero)/(Mean ODctrl−Mean ODzero) If (Mean ODtest−Mean ODzero)<0. then PG=100×(Mean ODtest−Mean ODzero)/(Mean ODzero where: • Mean ODzero=the average of optical density measurements of SRB-derived color just before exposure of cells to the test compounds; • Mean ODtest=the average of optical density measurements of SRB-derived color after exposure of cells to the test compound for a designated period of time; and • Mean ODctrl=the average of optical density measurements of SRB-derived color after with no exposure of cells to the test compound for a designated period of time
(§4) The first two columns describe the subpanel (e.g., leukemia) and cell line (e.g., CCRF-CEM) involved. The next two columns list the Mean ODzero and Mean ODctrl; the next five columns list the Mean ODtest for each of five different concentrations. Each concentration is expressed as the log10 (molar or μg/ml). The next five columns list the calculated PGs for each concentration. The response parameters GI50, TGI and LC50 are interpolated values representing the concentrations at which the PG is +50, 0, and −50, respectively. Sometimes these response parameters cannot be obtained by interpolation. If, for instance, all of the PGs in a given row exceed +50, then none of the three parameters can be obtained by interpolation. In such a case, the value given for each response parameter is the highest concentration tested and is preceded by a “>” sign. This practice is extended similarly to the other possible situations where a response parameter cannot be obtained by interpolation.
(§5) In the first set, the cells from 56 different cancer cell lines were exposed to five concentrations of arsenic trioxide continuously for two days prior to performing the SRB assay. In the second set, the cells from 50 different cell lines (a subset of the first 56 cell lines, plus the renal cancer cell line 786-0) were exposed continuously for six days prior to the SRB assay.

[2] = test system: MCF7; assay: SRB growth assay, 6 days exposure, breast cancer; conditions: MCF7, 6 days
Method: as §1, §2, §3, §4, §5

[3] = test system: MDA-MB-231/ATCC; assay: SRB growth assay, 6 days exposure, breast cancer
Method: as §1, §2, §3, §4, §5

[4] = test system: BR-549; assay: SRB growth assay, 6 days exposure, breast cancer; conditions: BT-549, 6 days
Method: as §1, §2, §3, §4, §5

[5] = test system: HS 578T; assay: SRB growth assay, 6 days exposure, breast cancer
Method: as §1, §2, §3, §4, §5

[6] = test system: NCI/ADR-RIS; assay: SRB growth assay, 6 days exposure, breast cancer
Method: as §1, §2, §3, §4, §5

[7] = test system: SNB-19; assay: SRB growth assay, 2 days exposure, CNS cancer
Method: as §1, §2, §3, §4, §5

[8] = test system: SF-268; assay: SRB growth assay, 2 days exposure, CNS cancer
Method: as §1, §2, §3, §4, §5

[9] = test system: U251; assay: SRB growth assay, 2 days exposure, CNS cancer
Method: as §1, §2, §3, §4, §5

[10] = test system: SF-539; assay: SRB growth assay, 2 days exposure, CNS cancer
Method: as §1, §2, §3, §4, §5

[11] = read-out: LC50 (the source's name)

arsenic trioxide
TGI [1]: 9.55E−06
Mean Optical Densities ([1]; Log 10 Concentration −4.9): 0.026
Percent Growth ([1]; Log 10 Concentration −4.9): −9%
Mean Optical Densities ([1]; Log 10 Concentration −5.9): 1.738
Percent Growth ([1]; Log 10 Concentration −5.9): 65%
Mean Optical Densities ([1]; Log 10 Concentration −6.9): 2.606
Percent Growth ([1]; Log 10 Concentration −6.9): 98%
Mean Optical Densities ([1]; Log 10 Concentration −7.9): 2.616
Percent Growth ([1]; Log 10 Concentration −7.9): 99%
Mean Optical Densities ([1]; Log 10 Concentration −8.9): 2.468
Percent Growth ([1]; Log 10 Concentration −8.9): 93%
CC50 [1, 11]: > 12.6 µM
TGI [2]: 3.66E−06
Mean Optical Densities ([2]; Log 10 Concentration −4.9): 0.008
Percent Growth ([2]; Log 10 Concentration −4.9): −73%
Mean Optical Densities ([2]; Log 10 Concentration −5.9): 1.683
Percent Growth ([2]; Log 10 Concentration −5.9): 63%
Mean Optical Densities ([2]; Log 10 Concentration −6.9): 2.603
Percent Growth ([2]; Log 10 Concentration −6.9): 98%
Mean Optical Densities ([2]; Log 10 Concentration −7.9): 2.611
Percent Growth ([2]; Log 10 Concentration −7.9): 99%
Mean Optical Densities ([2]; Log 10 Concentration −8.9): 2.647
Percent Growth ([2]; Log 10 Concentration −8.9): 100%
TGI [3]: 3.18E−06
Mean Optical Densities ([3]; Log 10 Concentration −4.9): −0.001
Percent Growth ([3]; Log 10 Concentration −4.9): −100%
Mean Optical Densities ([3]; Log 10 Concentration −5.9): 0.563
Percent Growth ([3]; Log 10 Concentration −5.9): 67%
Mean Optical Densities ([3]; Log 10 Concentration −6.9): 0.771
Percent Growth ([3]; Log 10 Concentration −6.9): 102%
Mean Optical Densities ([3]; Log 10 Concentration −7.9): 0.764
Percent Growth ([3]; Log 10 Concentration −7.9): 101%
Mean Optical Densities ([3]; Log 10 Concentration −8.9): 0.759
Percent Growth ([3]; Log 10 Concentration −8.9): 100%
GI50 [4]: 2.22 µM
TGI [4]: 4.24E−06
Mean Optical Densities ([4]; Log 10 Concentration −4.9): 0.018
Percent Growth ([4]; Log 10 Concentration −4.9): −84%
Mean Optical Densities ([4]; Log 10 Concentration −5.9): 1.697
Percent Growth ([4]; Log 10 Concentration −5.9): 94%
Mean Optical Densities ([4]; Log 10 Concentration −6.9): 1.963
Percent Growth ([4]; Log 10 Concentration −6.9): 110%
Mean Optical Densities ([4]; Log 10 Concentration −7.9): 1.940
Percent Growth ([4]; Log 10 Concentration −7.9): 108%
Mean Optical Densities ([4]; Log 10 Concentration −8.9): 1.876
Percent Growth ([4]; Log 10 Concentration −8.9): 105%
CC50 [4, 11]: 8.08 µM
TGI [5]: 4.12E−06
Mean Optical Densities ([5]; Log 10 Concentration −4.9): 0.010
Percent Growth ([5]; Log 10 Concentration −4.9): −91%
Mean Optical Densities ([5]; Log 10 Concentration −5.9): 0.706
Percent Growth ([5]; Log 10 Concentration −5.9): 96%
Mean Optical Densities ([5]; Log 10 Concentration −6.9): 0.890
Percent Growth ([5]; Log 10 Concentration −6.9): 126%
Mean Optical Densities ([5]; Log 10 Concentration −7.9): 0.587
Percent Growth ([5]; Log 10 Concentration −7.9): 77%
Mean Optical Densities ([5]; Log 10 Concentration −8.9): 0.777
Percent Growth ([5]; Log 10 Concentration −8.9): 108%
TGI [6]: >1.26E−05
Mean Optical Densities ([6]; Log 10 Concentration −4.9): 0.072
Percent Growth ([6]; Log 10 Concentration −4.9): 1%
Mean Optical Densities ([6]; Log 10 Concentration −5.9): 1.319
Percent Growth ([6]; Log 10 Concentration −5.9): 56%
Mean Optical Densities ([6]; Log 10 Concentration −6.9): 1.951
Percent Growth ([6]; Log 10 Concentration −6.9): 84%
Mean Optical Densities ([6]; Log 10 Concentration −7.9): 2.253
Percent Growth ([6]; Log 10 Concentration −7.9): 98%
Mean Optical Densities ([6]; Log 10 Concentration −8.9): 2.075
Percent Growth ([6]; Log 10 Concentration −8.9): 90%
CC50 [6, 11]: > 12.6 µM
TGI [7]: >0.0126 ng/mL
Percent Growth ([7]; log10 conc −4.9): 36%
Percent Growth ([7]; log10 conc −5.9): 97%
Percent Growth ([7]; log10 conc −6.9): 98%
Percent Growth ([7]; log10 conc −7.9): 97%
Percent Growth ([7]; log10 conc −8.9): 93%
TGI [8]: >0.0126 ng/mL
Percent Growth ([8]; log10 conc −4.9): 23%
Percent Growth ([8]; log10 conc −5.9): 100%
Percent Growth ([8]; log10 conc −6.9): 108%
Percent Growth ([8]; log10 conc −7.9): 94%
Percent Growth ([8]; log10 conc −8.9): 110%
TGI [9]: 0.00437 ng/mL
Percent Growth ([9]; log10 conc −4.9): −68%
Percent Growth ([9]; log10 conc −5.9): 80%
Percent Growth ([9]; log10 conc −6.9): 101%
Percent Growth ([9]; log10 conc −7.9): 99%
Percent Growth ([9]; log10 conc −8.9): 98%
TGI [10]: 0.00885 ng/mL
Percent Growth ([10]; log10 conc −4.9): −17%
Percent Growth ([10]; log10 conc −5.9): 92%
Percent Growth ([10]; log10 conc −6.9): 113%
Percent Growth ([10]; log10 conc −7.9): 117%
Percent Growth ([10]; log10 conc −8.9): 109%
